Structures can show the parent of a compound that is named as a salt. Where two headings read alike, the source gives them in different places.
What was measured:
[1] = system: rats trained to jump up on a vertical isolated pole; assay: Pole Climbing Test (rat): inhibition of conditioned (BCR) and unconditioned (BUR) reaction; assay type: in vivo; settings: ip; for ED50: inhibition of conditioned reaction in 50% of the animals, observation time 6 hours; for ED10: inhibition of unconditioned reaction, ED10, i.p.
Experimental: "Pole Climbing" Test (rat)
For this experimental procedure there was used per dosage a group of 10 rats trained to jump up on a vertical isolated pole in the experimental cage, to escape an electroshock (unconditioned stimulus) produced via the lattice floor immediately after an acoustic signal (conditioned stimulus). The inhibition of the conditioned reaction in the case of 50% of the animals during an observation time of 6 hours is determined by the parameter ED 50 BCR, the inhibition of the unconditioned reaction is determined by the parameter ED 10 BUR.

[2] = target: T1, receptor, calf striatum ([^3 H]-spiroperidol) (Bos taurus, UniProt P20288); assay: Spiroperidol-Binding Test (in vitro)
T1 construct: calf striatum was used as the receptor; from tissue; host or cells: calf striatum

[3] = system: apomorphine-induced vomiting (dog); assay: Antiemetic Activity (dog): apomorphine-induced vomiting; assay type: in vivo, dog (Beagle hounds); settings: Canis lupus familiaris, po, 1 hour before apomorphine hydrochloride 0.1 or 0.3 mg/kg s.c., 50% of animals protected, read-out: Anti-apomorphine emesis ED50 p.o.
[4] = 50% detachment of specific binding of [^3 H]-spiroperidol, calf striatum, in vitro, read-out: Spiroperidol-Binding IC50

T1 sequence (P20288 whole entry): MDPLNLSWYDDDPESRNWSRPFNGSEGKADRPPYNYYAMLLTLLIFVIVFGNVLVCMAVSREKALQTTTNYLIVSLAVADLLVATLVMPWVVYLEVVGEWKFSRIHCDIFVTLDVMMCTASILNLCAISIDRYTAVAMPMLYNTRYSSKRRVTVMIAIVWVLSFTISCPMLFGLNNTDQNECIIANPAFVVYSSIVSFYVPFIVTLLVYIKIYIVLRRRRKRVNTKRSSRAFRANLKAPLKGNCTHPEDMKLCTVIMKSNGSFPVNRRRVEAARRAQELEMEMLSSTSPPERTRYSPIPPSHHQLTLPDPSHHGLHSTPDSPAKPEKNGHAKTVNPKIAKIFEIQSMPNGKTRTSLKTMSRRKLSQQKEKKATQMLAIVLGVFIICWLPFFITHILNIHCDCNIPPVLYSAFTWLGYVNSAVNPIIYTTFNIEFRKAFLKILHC

| SMILES | ED50 [1] | ED10 [1] | IC50 [2, 4] | IC50 [2] | ED50 [3] |
| --- | --- | --- | --- | --- | --- |
| O=C(N[C@@H]1CCN2C[C@@H](c3ccccc3Cl)CC[C@@H]2C1)C1CC1 (relative stereo) [rac-N-[(9aβH)-7β-(o-chlorophenyl)-octahydro-2H-quinolizin-2α-yl]-cyclopropanecarboxamide] | 6 mg/kg | 5.5 mg/kg | 550 nM |  |  |
| O=c1[nH]c2cc(Br)ccc2n1[C@@H]1CCN2C[C@@H](c3ccccc3F)CC[C@@H]2C1 (relative stereo) [rac-1-[(9aβH)--7β-(o-Fluorophenyl)-octahydro-2H--quinolizin-2α-yl]-5-bromo-2-benzimidazolinone.HCl] | 0.08 mg/kg | 0.1 mg/kg |  | 3.8 nM |  |
| O=C1CCCN1C(=O)N[C@@H]1CCN2C[C@@H](c3ccccc3Cl)CC[C@@H]2C1 (relative stereo) [rac-N-((9aβH)-7β-(o-chlorophenyl)octahydro-2H-quinolizin-2α-yl)-2-oxo-1-pyrrolidinecarboxamide] | 23 mg/kg | > 30 mg/kg |  |  |  |
| CCS(=O)(=O)c1ccc(OC)c(C(=O)N[C@@H]2CCN3C[C@@H](c4ccccc4Cl)CC[C@@H]3C2)c1 (relative stereo) [rac-N-((9aβH)-7β-(o-chlorophenyl)octahydro-2H-quinolizin-2α-yl)-5-(ethylsulfonyl)-o-anisamide] | 10 mg/kg | 10 mg/kg | 135 nM |  | 0.38 mg/kg |
| COc1cc(N)c(Cl)cc1C(=O)N[C@@H]1CCN2C[C@@H](c3ccccc3Cl)CC[C@@H]2C1 (relative stereo) [rac-4-amino-5-chloro-N-[(9aβH)-7β-(o-chlorophenyl)-octahydro-2H-quinolizin-2α-yl]-o-anisamide] | 12.5 mg/kg | 12.5 mg/kg | 30 nM |  | 2.3 mg/kg |
| COc1ccc(S(N)(=O)=O)cc1C(=O)N[C@@H]1CCN2C[C@@H](c3ccccc3Cl)CC[C@@H]2C1 (relative stereo) [rac-N-((9aβH)-7β-(o-chlorophenyl)octahydro-2H-quinolizin-2α-yl)-5-sulfamoyl-o-anisamide] |  |  |  |  | 0.8 mg/kg |
| O=c1[nH]c2cc(I)ccc2n1[C@@H]1CCN2C[C@@H](c3ccccc3F)CC[C@@H]2C1 (relative stereo) [rac-1-[(9aβH)-7β-(o-fluorophenyl)-octahydro-2H-quinolizin-2α-yl]-5-iodo-2-benzimidazolinone] | 0.1 mg/kg | 0.055 mg/kg |  | 8.6 nM |  |
| O=C(c1ccc(F)cc1)[C@@H]1CCN2C[C@@H](c3ccccc3Cl)CC[C@@H]2C1 (relative stereo) [rac-[(9aβH)-7β-(o-chlorophenyl)-octahydro-2H-quinolizin-2α-yl]p-fluorophenylketone] | 3 mg/kg | 3 mg/kg | 11 nM |  |  |
| N#Cc1ccc2c(c1)[nH]c(=O)n2[C@@H]1CCN2C[C@@H](c3ccccc3F)CC[C@@H]2C1 (relative stereo) [rac-1-[(9aβH)--7β-(o-Fluorophenyl)-octahydro-2H--quinolizin-2α-yl]-5-cyano-2-benzimidazolinone.HCl] | 0.65 mg/kg | 1 mg/kg |  | 50 nM |  |
| O=C(N[C@@H]1CCN2C[C@@H](c3ccccc3Cl)CC[C@@H]2C1)c1ccc(F)cc1 (relative stereo) [rac-N-((9aβH)-7β-(o-chlorophenyl)octahydro-2H-quinolizin-2α-yl)-p-fluorobenzamide] | 12 mg/kg | 5.5 mg/kg | 67 nM |  |  |
| O=C(N[C@@H]1CCN2C[C@@H](c3ccccc3Cl)CC[C@@H]2C1)c1cccs1 (relative stereo) [rac-N-((9aβH)-7β-(o-chlorophenyl)octahydro-2H-quinolizin-2α-yl)-2-thiophenecarboxamide] | 18 mg/kg | 25 mg/kg | 123 nM |  |  |

Reference: US4391978A, “Phenyl-quinolizidines” (Hoffmann-La Roche Inc., priority 1980, dated 1983)
